# Entries after “also recorded” stand apart in the source; their conditions may differ.
# Tests used:
# HER2 (pY1248) in SKBR3 = biological target: T1, HER2 (pY1248) in SKBR3 (Homo sapiens, UniProt P04626); assay: HER2 activation (pY1248-HER2) in SKBR3 cells, western/dot blot; assay type: cell-based; parameters: Inhibition of HER2 activation / HER2 inhibition, %: concentration or dose not given beside the values; details: for Inhibition of HER2 activation/activity: HER2+ breast cancer cells (SKBR3 in Fig. S1); for HER2 inhibition, % / EC50: Table 1, HER2+ breast cancer cells (ebselen oxide value equals SKBR3 48 h); for EC50: read-out: EC50, μM (HER2 inhibition)
# T1 construct: host or cells: SKBR3
# T1 sequence (P04626 23-1255): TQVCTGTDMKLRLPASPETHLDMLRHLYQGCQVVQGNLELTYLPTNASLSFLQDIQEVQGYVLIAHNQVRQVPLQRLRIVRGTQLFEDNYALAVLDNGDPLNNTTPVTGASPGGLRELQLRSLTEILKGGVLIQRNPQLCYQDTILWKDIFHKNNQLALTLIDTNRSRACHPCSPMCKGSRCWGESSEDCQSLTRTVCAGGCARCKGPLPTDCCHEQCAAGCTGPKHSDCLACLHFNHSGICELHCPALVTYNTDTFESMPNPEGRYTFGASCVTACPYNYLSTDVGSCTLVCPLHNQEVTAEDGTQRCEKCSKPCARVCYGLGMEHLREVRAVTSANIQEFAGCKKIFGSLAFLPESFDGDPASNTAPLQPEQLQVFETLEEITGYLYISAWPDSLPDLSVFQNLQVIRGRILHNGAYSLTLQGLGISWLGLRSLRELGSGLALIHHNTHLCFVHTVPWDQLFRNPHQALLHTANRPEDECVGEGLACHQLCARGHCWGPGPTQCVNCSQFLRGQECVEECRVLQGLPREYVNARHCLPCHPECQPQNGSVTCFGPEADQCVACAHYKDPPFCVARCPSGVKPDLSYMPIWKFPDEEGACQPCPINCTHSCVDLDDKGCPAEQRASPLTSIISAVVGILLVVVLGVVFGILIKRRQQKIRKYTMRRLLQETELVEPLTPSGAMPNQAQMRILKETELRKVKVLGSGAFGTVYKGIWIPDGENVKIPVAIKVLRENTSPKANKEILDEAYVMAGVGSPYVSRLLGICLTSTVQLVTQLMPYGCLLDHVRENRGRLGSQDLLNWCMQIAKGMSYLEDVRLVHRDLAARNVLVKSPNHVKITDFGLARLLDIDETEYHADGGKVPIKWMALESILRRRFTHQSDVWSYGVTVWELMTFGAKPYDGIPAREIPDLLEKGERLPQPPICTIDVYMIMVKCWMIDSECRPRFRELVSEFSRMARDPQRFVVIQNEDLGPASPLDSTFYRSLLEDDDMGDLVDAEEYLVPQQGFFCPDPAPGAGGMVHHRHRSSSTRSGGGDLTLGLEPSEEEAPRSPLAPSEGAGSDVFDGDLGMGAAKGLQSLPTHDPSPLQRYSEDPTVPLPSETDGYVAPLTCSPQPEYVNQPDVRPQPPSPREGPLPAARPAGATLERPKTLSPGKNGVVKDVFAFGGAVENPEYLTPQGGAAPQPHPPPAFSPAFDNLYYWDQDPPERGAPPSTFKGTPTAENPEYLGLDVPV
# [1] = system: HER2+ breast cancer cells; assay: HER2-dependent (anchorage-dependent) proliferation, Table 1; assay type: cell-based, human
# Excerpt: Given the promising effects of ebselen oxide, we then evaluated several structurally related compounds in order to define the structural determinants essential for HER2 binding and inhibition. […] These observations allowed us to define a pharmacophore of ebselen derivatives required for HER2 inhibition where atoms in position Y and R (shown in red in structure) can be modified as followed: Y is either a S or a Se=O and R is either H or Cl or Me but not OMe or CF3 (Table 1).
# [2] = biological target: T2, JMHER2/FERME interaction (biot-JMHER2 peptide and GST-FERME, N-terminal FERM domain of ezrin) (Homo sapiens, UniProt P04626); assay: AlphaScreen competition of HER2 juxtamembrane peptide / ezrin FERM domain interaction; assay type: binding; details: for Inhibition of HER2-FERME interaction, %: compound 0–50 μM, biot-JMHER2 5 nM; for EC50: read-out: EC50, μM (inhibition of HER2-FERME interaction); for Competition with HER2/FERM interaction / binding affinity for JMHER2: compared to ebselen oxide
# T2 construct: purchased Proteogenix
# Experimental: Biotinylated peptide derived from HER2 cytosolic juxtamembrane region (JMHER2, […] ) has been synthesized by Proteogenix (Schiltigheim, France). The binding reaction was described previously. Briefly, white 384‐well Optiplates (PerkinElmer, Whalham, MA, USA) were used to prepare GST‐FERME and biotinylated peptide in a binding buffer (PBS, pH 7.4, 5 mM MgCl2, and 0.02% CHAPS). GST‐FERME was incubated with biotinylated‐HER2 for 30 min at room temperature. AlphaScreen® Streptavidin Donor beads (20 μg·mL^−1) and Glutathione AlphaLISA® Acceptor Beads (20 μg·mL^−1) were added to the wells for overnight incubation in the dark and at room temperature. Light signal was detected with the EnVision® multilabel plate reader (PerkinElmer).
# Ebselen came out as an interesting hit. Ebselen is a synthetic organoselenium compound with the anti‐inflammatory and antioxidant property that has been evaluated in clinical trials for ischemic stroke and acute hearing loss. However, in vivo, ebselen rapidly reacts with peroxynitrite to form ebselen oxide. […] In addition, using surface plasmon resonance (SPR), we confirmed that both compounds could directly bind to JMHER2 (Fig. 1E,F). […] The slight decrease in HER2 expression was not significant. To examine whether HER2 inhibition by ebselen oxide was dependent on JMHER2/FERME interaction, we transfected HBMEC cells with a previously described glycoprotein D‐tagged HER2 form mutated on the critical amino acids involved in ERM binding (gD‐HER2‐EBM*).
# [3] = parameters: method as in PMID 34299505; details: whatever the administered doses; cited from earlier work
# [4] = biological target: T3, JMHER2 (peptide derived from the cytosolic juxtamembrane sequence of HER2) (Homo sapiens, UniProt P04626); assay: Surface plasmon resonance binding to immobilized HER2 juxtamembrane peptide; details: analyte 5 or 10 μM, 60 s injection
# T3 construct: purchased Proteogenix
# Experimental: Interaction was performed on a BIAcore T200 instrument BIAcore (Cytiva Life Sciences, Marlborough, MA, USA); GE Healthcare (Little Chalfont, UK). […] Ebselen or ebselen oxide was used as an analyte and injected at 5 or 10 μM at a flow rate of 25 μL·min^−1 for 60 s.
# [5] = parameters: method as in PMID 11546910; details: after intravenous injection; cited from earlier work
# [6] = parameters: method as in PMID 23299882; details: cited from earlier work
# [7] = system: main protease of SARS‐CoV‐2; parameters: method as in PMID 33120196; details: cited from earlier work
# SKOV3 = assay: Proliferation of SKOV3 cells; assay type: cell-based, human; details: ebselen oxide 7–10 μM, AG1478 5 μM
# NCI-N87 [8] = assay: Proliferation of NCI-N87 cells; assay type: cell-based, human; details: ebselen oxide 7–10 μM, AG1478 5 μM
# Experimental: (§1) Fig. 3 Ebselen oxide inhibits HER2 activation and HER2‐dependent proliferation in gastric and ovarian HER2^+ cancer cells. (A) HER2‐positive NCI‐87 gastric cancer cells were treated with ebselen oxide (0–20 μM) for 24 h, lysed, and analyzed by western blot using anti‐pY1248‐HER2, HER2, and β‐tubulin antibodies. A representative western blot is shown out of 4 independent experiments. (B) HER2‐positive SKOV3 ovarian cancer cells were treated with ebselen oxide (0–10 μM) for 24 h, lysed, and analyzed by western blot using anti‐pY1248‐HER2, HER2, and ezrin antibodies. A western blot is shown (n = 1). (C, D) Proliferation curves of NCI‐N87 gastric (C) or SKOV3 ovarian (D) cancer cells treated with vehicle or 7–10 μM ebselen oxide measured by MTT assay. Data are mean ± SEM (n = 9–12) of three independent experiments.
# Supplementary figure 4: NCI-N87 and SKOV3 cancer cell lines are addicted to the HER2 pathway
# (A) NCI-N87 cells were treated (+) or not (-) with a non-specific HER2 inhibitor AG1478 (5 µM). Whole cell lysates were analyzed by western blot with pY1248 HER2, HER2 and pERK antibodies.
# (B) SKOV3 cells were treated (+) or not (-) with a non-specific HER2 inhibitor AG1478 (5 µM). Whole cell lysates were analyzed by western blot with pY1248 HER2, HER2, pERK or beta-tubulin antibodies.
# (C) Proliferation curves of NCI-N87 treated or not with AG1478 (5 µM). Data are mean ± sem (n=4-6). 2- […]
# HER2 (pY1248) in NCI-N87 = biological target: T4, HER2 (pY1248) in NCI-N87 (Homo sapiens, UniProt P04626); assay: HER2 activation in NCI-N87 gastric cancer cells, western blot; assay type: cell-based
# T4 construct: host or cells: NCI-N87
# T4 sequence (P04626 23-1255): as above
# Experimental: (A-C) HER2-positive […] (SKBR3, A; NCI-N87, B; BT474, C) treated or not with Ebselen
# indicated, were analyzed by western blot to evaluate HER2 activation status using antibodies directed
# Proliferation was assessed by Incucyte during 4 days.
# HER2 (pY1248) in SKOV3 = biological target: T5, HER2 (pY1248) in SKOV3 (Homo sapiens, UniProt P04626); assay: HER2 activation in SKOV3 ovarian cancer cells, western blot; assay type: cell-based; details: ebselen oxide 0–10 μM 24 h, AG1478 5 μM
# T5 construct: host or cells: SKOV3
# T5 sequence (P04626 23-1255): as above
# Experimental: Human bone marrow endothelial cells (HBMECs) kindly provided by Dr. B. Weksler (Weill Medical College of Cornell University, NY) were cultured as described previously. The human breast cancer cell lines [SKBR3 (RRID:CVCL_0033), BT474 (RRID:CVCL_0179), and MDA‐MB‐231 (RRID:CVCL_0062)], the human gastric [NCI‐87 (RRID:CVCL_1603)] and ovarian [SKOV3 (RRID:CVCL_0532)] cancer cell lines were obtained from the American Type Culture Collection (Manassas, VA) and were maintained in DMEM containing 10% FBS. All cell lines were cultured under 5% CO2 at 37 °C. HBMECs were transfected using Amaxa Inc nucleofector system (Kit V and U015 program). […]
# as §1, with “A representative western blot is shown out of 4 independent experiments.” left out, “A western blot is shown (n = 1).” left out, “Data are mean ± SEM (n = 9–12) of three independent experiments.” left out
# BT474 = assay: Incucyte proliferation, single agents and combinations, BT474; assay type: cell-based; details: Homo sapiens, BT-474, 96 h; read-out: Reduction/inhibition of cell proliferation
# Experimental: (§2) (A–C) Proliferation curves of HER2‐positive (SKBR3, A; BT474, B; NCI‐N87, C) cancer cell lines treated or not with ebselen oxide (10 μM), lapatinib (10–1000 nM), or combination of these agents, as indicated. Proliferation was assessed overtime by Incucyte during 4 days. Data are mean ± SD (n = 8–12) of a representative experiment out of 4 (A), 3 (B), or 2 (C) independent experiments. […] Proliferation was assessed by Incucyte during 4 days. […] Scale bars are […].
# NCI-N87 [9] = assay: Anchorage-independent growth (spheroid assay, ULA plates), NCI-N87; assay type: cell-based, human; details: ebselen oxide 10 μM, lapatinib 10 nM, trastuzumab 10 μg·mL−1, alone or combined
# Experimental: 5.10^3 cells/24‐well were seeded in a complete medium in ULA plates (Corning® Costar® (Corning, NY, USA) C LS3473‐24EA) in the presence of indicated compounds. Spheroids were imaged 6–8 days later with a phase‐contrast microscope, and their areas were measured using IMAGEJ software.
# Proliferation was assessed overtime by Incucyte during 4 days. Data are mean ± SD (n = 8–12) of a representative experiment out of 4 (A), 3 (B), or 2 (C) independent experiments. One‐way ANOVA followed by Sidak multiple comparison test, (*, compared with Vehicle; ° and #, respectively, compared with lapatinib 10 and 1000 nM) ***P < 0.001, ****P < 0.0001. […] Proliferation was assessed by Incucyte during 4 days. Data are mean ± SD (n = 8–12) of a representative experiment out of two independent experiments. […] Images of a representative experiment out of 3 (G) or 4 (H) independent experiments and quantification of the colony total area are shown where data are mean ± SEM. One‐way ANOVA followed by multiple comparison test, *P < 0.05, **P < 0.01. Scale bars are 100 μM.
# SKBR3 = assay: Incucyte proliferation, single agents and combinations, SKBR3; assay type: cell-based; details: Homo sapiens, SK-BR-3, 96 h; read-out: Reduction/inhibition of cell proliferation
# Experimental: as §2
# NCI-N87 [10] = assay: Incucyte proliferation, single agents and combinations, NCI-N87; assay type: cell-based; details: Homo sapiens, NCI-N87, 96 h; read-out: Reduction/inhibition of cell proliferation
# Experimental: as §2
SMILES,Inhibition of HER2 activation/activity (HER2 (pY1248) in SKBR3),"HER2 inhibition, % (HER2 (pY1248) in SKBR3)",EC50 (HER2 (pY1248) in SKBR3),Effect on proliferation of HER2+ breast cancer cells [1],"Inhibition of HER2-FERME interaction, % ([2]; AlphaScreen, 20 h)","EC50 ([2]; AlphaScreen, 20 h)",Competition with HER2/FERM interaction / binding affinity for JMHER2 [2],other results
"O=c1c2ccccc2sn1-c1ccc(Cl)cc1 [Analog 2, 2‐(4‐chlorophenyl)‐1,2‐benzisothiazol‐3(2H)‐one]",inhibited,75.4%,41.7 µM,reduced,40.4%,1.08 µM,competed,–
"Cc1ccc(-n2c(=O)c3ccccc3[s+]2[O-])cc1 (centres unmarked) [Analog 6, 2‐(4‐Methylphenyl)‐1‐oxo‐1,2‐benzothiazol‐3‐one]",no or low inhibition,0.2%,–,no or low inhibition,43.6%,2.53 µM,–,–
"CC(C)c1ccc(N2Cc3ccccc3C2=O)cc1 [Analog 5, 2‐(4‐isopropyl phenyl)‐1‐isoindolinone]",no or low inhibition,16.3%,2 µM,no or low inhibition,49.0%,0.255 µM,greater binding affinity,–
O=c1c2ccccc2[se]n1-c1ccccc1 [Ebselen],poorly inhibited; also recorded: did not inhibit,14.4%,51.3 µM,–,–,0.044 µM,–,"Tolerability in vivo [3]: always well tolerated; Direct binding to JMHER2 (SPR) [4]: directly bind; Half-life [5]: 1 to 3 h; Time to maximum serum concentration [5]: 1 h; Blood–brain barrier permeation [6]: blood–brain barrier permeant; IC50 ([2]; AlphaScreen, 20 h): 44 nM; Inhibition of the main protease of SARS-CoV-2 [7]: highly active"
"O=C1c2ccccc2C(=O)N1c1ccccc1 [Analog 4, N‐phenylphtalimide]",no or low inhibition,0.0%,–,no or low inhibition,47.3%,0.003 µM,greater binding affinity,–
"COc1cc2ncnc(Nc3cccc(Cl)c3)c2cc1OC [AG1478, Tyrphostin AG1478, reference compound]",–,–,–,–,–,–,–,"Effect on proliferation (SKOV3): decrease; Effect on proliferation (NCI-N87 [8]): decrease; Effect on HER2 activation (HER2 (pY1248) in NCI-N87; ebselen oxide 0–20 μM 24 h, AG1478 5 μM): decrease; Effect on HER2 activation (HER2 (pY1248) in SKOV3): decrease"
"O=c1c2ccccc2sn1-c1ccc(C(F)(F)F)cc1 [Analog 7, 2‐[4‐(trifluoromethyl)phenyl]‐1,2‐benzothiazol‐3‐one]",–,–,–,–,100%,97 µM,drastically reduced,–
"Cc1ccc(-n2sc3ccccc3c2=O)cc1 [Analog 1, 2‐(4‐methylphenyl)‐1,2‐benzisothiazol‐3(2H)‐one]",inhibited,65.0%,39.8 µM,reduced,45.0%,0.716 µM,competed,–
"CS(=O)(=O)CCNCc1ccc(-c2ccc3ncnc(Nc4ccc(OCc5cccc(F)c5)c(Cl)c4)c3c2)o1 [lapatinib, Lapatinib ditosylate, reference compound]",–,–,–,–,–,–,–,"Effect on HER2 activation, single agents and combination (HER2 (pY1248) in SKBR3; SKBR3, ebselen oxide 10 μM, lapatinib 10 nM): partially decreased; inhibition at 0.01 µM (BT474): 18%; Reduction of anchorage-independent growth (spheroid assay) (NCI-N87 [9]): 35%; Effect on HER2 activation, single agents and combination (HER2 (pY1248) in NCI-N87; ebselen oxide 10 μM, lapatinib 10 nM): partially decreased; inhibition at 0.01 µM (SKBR3): 39%; inhibition at 0.01 µM (NCI-N87 [10]): 53%"
"O=c1c2ccccc2[s+]([O-])n1-c1ccc(Cl)cc1 (centres unmarked) [Analog 8, 2‐(4‐chlorophenyl)‐1‐oxo‐1,2‐benzothiazol‐3‐one]",–,–,–,–,100%,95.1 µM,drastically reduced,–
